In brackets after ≈: the same amount, converted by molar mass. Ends that are not written are not given here. Peptide text beside a SMILES is read from it. * marks the point of attachment. Decanoyl = CCCCCCCCCC(=O)*; Octanoyl = CCCCCCCC(=O)*; Hexanoyl = CCCCCC(=O)*; Butyryl = CCCC(=O)*
Experiments:
proteinase K = proteinase K (Parengyodontium album, UniProt P06873); assay: Proteolytic stability, tricine-SDS-PAGE; format: in vitro ADME; conditions: peptide 2.56 mM + 500 μg/ml protease (equal volumes), 16.5% tricine-SDS-PAGE
Chain of proteinase K (P06873 106-384): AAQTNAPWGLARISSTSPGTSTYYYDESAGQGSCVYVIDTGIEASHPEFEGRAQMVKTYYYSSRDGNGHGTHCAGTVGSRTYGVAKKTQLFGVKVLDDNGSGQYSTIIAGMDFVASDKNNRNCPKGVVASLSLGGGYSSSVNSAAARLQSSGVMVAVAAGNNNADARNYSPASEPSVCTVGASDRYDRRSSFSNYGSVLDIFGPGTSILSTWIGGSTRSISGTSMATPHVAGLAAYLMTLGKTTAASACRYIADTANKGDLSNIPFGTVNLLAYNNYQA
Protocol: 16.5% tricine−SDS − PAGE was used to evaluate the proteolytic stability of the peptides. The peptides (2.56 mM, 50 μl) were incubated with protease (500 μg/ml, 50 μl) at 37°C. After incubating for 1, 2, 4, or 8 h, the mixture (20 μl) was drawn out and placed in a bath of boiling water for 5 min. The mixture was then diluted to the suitable concentration for 16.5% tricine-SDS-PAGE analysis.

S. typhimurium 14028 = format: cell-based, Salmonella typhimurium; conditions: 14028, 20 h
Text: (§1) Escherichia coli ATCC25922, E. coli UB1005, Pseudomonas aeruginosa ATCC27853, Salmonella typhimurium ATCC14028, S. typhimurium C7731, Staphylococcus aureus ATCC29213, Methicillin-resistant S. aureus (MRSA) ATCC43300, S. epidermidis ATCC12228, and Enterococcus faecalis ATCC29212 were stored by the institute of animal nutrition, Northeast Agricultural University (Harbin, China). Multidrug-Resistant E. coli HP73 and E. coli HP74 were clinically isolated from swine-derived Escherichia coli and stored by the institute of animal nutrition, Northeast Agricultural University (Harbin, China).
(§2) The MICs were determined using a broth microdilution method with reference to Clinical and Laboratory Standards Institute (CLSI) guidelines ([Wiegand et al., 2008]). After a two-fold serial dilution of the peptides (50 μl, dilution buffer: 0.01% acetic acid containing 0.2% BSA) prepared in a 96-well plate, a series of an equal volume of bacterial solution (50 μl) prepared in Mueller-Hinton broth (MHB) were added to the same 96-well plate, and the final bacterial inoculum size in each well of the 96-well plate was approximately 5 × 10^5 CFU/ml. As positive and negative controls, bacteria solution without peptides and blank samples without bacteria were prepared in the same 96-well plate. […] The lowest peptide concentration at which there was no increase in optical density was referred to as the MIC.

S. typhimurium C7731 = format: cell-based, Salmonella typhimurium; conditions: C7731, 20 h
Text: as §1, §2

S. epidermidis 12228 = format: cell-based; conditions: 12228, 20 h
Text: as §1, §2

E. faecalis 29212 = format: cell-based, Enterococcus faecalis; conditions: 29212, 20 h
Text: as §1, §2

HEK293 = assay: Live/dead cell staining (calcein-AM/PI); format: cell-based, human; conditions: peptide concentration less than 64 μM
Text: For live/dead cell staining assay, HEK293 cell lines, calcein-AM, and propidium iodide (PI) were employed to assess the cell viability. The processes that come next are the same as in the prior report ([Lai et al., 2021]). There were two technical replicates used in the experiment.

P. aeruginosa 27853 = format: cell-based, Pseudomonas aeruginosa; conditions: 27853, 20 h
Text: as §1, §2

E. coli UB1005 = format: cell-based, Escherichia coli; conditions: UB1005, 20 h
Text: as §1, §2

E. coli 25922 = format: cell-based, Escherichia coli; conditions: 25922, 20 h
Text: as §1, §2

9 bacterial strains = assay: Geometric mean MIC over the 9 bacterial strains; format: cell-based; conditions: geometric mean of the 9 strains of Table 1
Protocol: as §2

E. coli HP73 = assay: microbe, parasite or virus in culture; format: cell-based, Escherichia coli; conditions: HP73, 20 h; read-out: MICs, E. coli HP73
Text: as §1, §2

E. coli HP74 = assay: microbe, parasite or virus in culture; format: cell-based, Escherichia coli; conditions: HP74, 20 h; read-out: MICs, E. coli HP74
Text: as §1, §2

MRSA 43300 = format: cell-based, Methicillin-resistant S. aureus; conditions: 43300, 20 h
Text: as §1, §2

HEK293T = assay: MTT cytotoxicity assay; format: cell-based, human; conditions: for Cytotoxicity toward HEK293T: at the test concentrations; for Cytotoxicity toward HEK293T / Concentration above which significant cytotoxicity toward HEK293T: 1 day incubation
Protocol: (§3) 3-(4,5-dimethylthiozol-2-yl)-2,5-diphenyltetrazolium bromide (MTT) assay and live/dead cell staining assay were conducted to assess the peptide cytotoxicity. For the MTT assay, cell lines were seeded and passaged twice in high-glucose Dulbecco’s modified Eagle’s medium (DMEM, containing 100 μg/ml streptomycin, 100 U/ml penicillin, and 10% vol/vol fetal bovine serum) or Dulbecco’s Modified Eagle Medium/Nutrient Mixture F-12 (DMEM/F-12, containing 100 μg/ml streptomycin, 100 U/ml penicillin, and 10% vol/vol fetal bovine serum) at a 5% CO2 incubator (37°C). The cells (approximately 50,000 cells per well) were cultured in a 96-well plate at a 5% CO2 incubator for 1 day. Then various concentrations of peptide solutions (50 μl) were added to the plate and incubated for another 1 day. The cells solution without peptides and blank samples without cells and peptides were prepared in the same 96-well plate as positive and negative controls, respectively. Subsequently, MTT (0.5 mg/ml, 20 μl per well) was added and the plate was incubated for another 4 h. Removed all supernatant from the plate and added 150 μl of dimethyl sulfoxide. Finally, a microplate reader (Tecan GENios F129004, Austria) was used to record the absorbance data at OD570 nm. Melittin was employed as a control peptide. The cell viability was calculated using the previously described equation ([Lai et al., 2021]).

S. aureus 29213 = format: cell-based, Staphylococcus aureus; conditions: 29213, 20 h
Text: as §1, §2

IPEC-J2 = assay: MTT cytotoxicity assay; format: cell-based, porcine; conditions: for Cytotoxicity toward IPEC-J2: at the test concentrations; for Cytotoxicity toward IPEC-J2 / Concentration above which significant cytotoxicity toward IPEC-J2: 1 day incubation
Protocol: as §3

[1] = peptide concentration less than 64 μM

Row | Compound | MICs, S. typhimurium 14028 (S. typhimurium 14028) [µM] | MICs, S. typhimurium C7731 (S. typhimurium C7731) [µM] | MICs, S. epidermidis 12228 (S. epidermidis 12228) [µM] | MICs, E. faecalis 29212 (E. faecalis 29212) [µM] | MICs, P. aeruginosa 27853 (P. aeruginosa 27853) [µM] | MICs, E. coli UB1005 (E. coli UB1005) [µM] | MICs, E. coli 25922 (E. coli 25922) [µM] | GM, geometric mean MICs from the 9 bacterial strains (9 bacterial strains) [µM] | MIC (E. coli HP73) [µM] | MIC (E. coli HP74) [µM] | MICs, MRSA 43300 (MRSA 43300) [µM] | MICs, S. aureus 29213 (S. aureus 29213) [µM] | Cytotoxicity toward HEK293T (HEK293T) | Cytotoxicity toward IPEC-J2 (IPEC-J2) | Concentration above which significant cytotoxicity toward HEK293T (HEK293T) | Concentration above which significant cytotoxicity toward IPEC-J2 (IPEC-J2) | other results
1 | CCCCCC(=O)NCCCC[C@H](NC(=O)[C@H](CC(C)C)NC(=O)[C@H](CCCCN)NC(=O)[C@H](CCCCN)NC(=O)[C@H](CC(C)C)NC(=O)[C@H](CCCCNC(=O)CCCCC)NC(=O)[C@H](CCCCN)NC(=O)[C@H](CCCCN)NC(=O)[C@H](CC(C)C)NC(=O)[C@H](CCCCN)NC(=O)[C@H](CCCCN)NC(=O)[C@H](CC(C)C)NC(=O)[C@@H](N)Cc1c[nH]c2ccccc12)C(=O)N[C@@H](CCCCN)C(=O)N[C@@H](CCCCN)C(=O)O [WL-C6] (H-WLKKLKKK(Hexanoyl)LKKLK(Hexanoyl)KK-OH) | 2 | 4 | 4 | 4 | 2 | 4 | 4 | 3.43 | 4 (≈ 8.54 µg/mL) | 4 (≈ 8.54 µg/mL) | 4 | 4 |  |  |  |  | Stability to proteinase K (band on gel) (proteinase K; 37°C, 1, 2, 4, 8 h): cleaved by proteinase K; Digestion period beyond which the bands gradually vanished, proteinase K (proteinase K; 37°C): > 1 h; Toxicity toward HEK293 (HEK293): negligible toxicity; Toxicity toward HEK293T (HEK293T; [1]): negligible toxicity; Toxicity toward IPEC-J2 (IPEC-J2; [1]): negligible toxicity
2 | WLKKLKKKLKKLKKK [WL] | 32 | 32 | 128 | >128 | 32 | 32 | 32 | 64.00 |  |  | 128 | 128 | no significant cytotoxicity | no significant cytotoxicity |  |  | 
3 | CCCCCCCC(=O)NCCCC[C@H](NC(=O)[C@H](CC(C)C)NC(=O)[C@H](CCCCN)NC(=O)[C@H](CCCCN)NC(=O)[C@H](CC(C)C)NC(=O)[C@H](CCCCNC(=O)CCCCCCC)NC(=O)[C@H](CCCCN)NC(=O)[C@H](CCCCN)NC(=O)[C@H](CC(C)C)NC(=O)[C@H](CCCCN)NC(=O)[C@H](CCCCN)NC(=O)[C@H](CC(C)C)NC(=O)[C@@H](N)Cc1c[nH]c2ccccc12)C(=O)N[C@@H](CCCCN)C(=O)N[C@@H](CCCCN)C(=O)O [WL-C8] (H-WLKKLKKK(Octanoyl)LKKLK(Octanoyl)KK-OH) | 4 | 4 | 4 | 4 | 4 | 2 | 4 | 3.70 | 4 (≈ 8.76 µg/mL) | 4 (≈ 8.76 µg/mL) | 4 | 4 |  |  | greater than 32 μM | greater than 32 μM | 
4 | CCCCCCCCCC(=O)NCCCC[C@H](NC(=O)[C@H](CC(C)C)NC(=O)[C@H](CCCCN)NC(=O)[C@H](CCCCN)NC(=O)[C@H](CC(C)C)NC(=O)[C@H](CCCCNC(=O)CCCCCCCCC)NC(=O)[C@H](CCCCN)NC(=O)[C@H](CCCCN)NC(=O)[C@H](CC(C)C)NC(=O)[C@H](CCCCN)NC(=O)[C@H](CCCCN)NC(=O)[C@H](CC(C)C)NC(=O)[C@@H](N)Cc1c[nH]c2ccccc12)C(=O)N[C@@H](CCCCN)C(=O)N[C@@H](CCCCN)C(=O)O [WL-C10] (H-WLKKLKKK(Decanoyl)LKKLK(Decanoyl)KK-OH) | >128 | >128 | >128 | >128 | >128 | 16 | >64 | 94.06 |  |  | >128 | >128 |  |  | greater than 32 μM | greater than 32 μM | 
5 | WLKKLKKK(Ac)LKKLK(Ac)KK [WL-C2] | 16 | 16 | 64 | 128 | 16 | 8 | 8 | 27.43 |  |  | 64 | 64 | no significant cytotoxicity | no significant cytotoxicity |  |  | 
6 | CCCC(=O)NCCCC[C@H](NC(=O)[C@H](CC(C)C)NC(=O)[C@H](CCCCN)NC(=O)[C@H](CCCCN)NC(=O)[C@H](CC(C)C)NC(=O)[C@H](CCCCNC(=O)CCC)NC(=O)[C@H](CCCCN)NC(=O)[C@H](CCCCN)NC(=O)[C@H](CC(C)C)NC(=O)[C@H](CCCCN)NC(=O)[C@H](CCCCN)NC(=O)[C@H](CC(C)C)NC(=O)[C@@H](N)Cc1c[nH]c2ccccc12)C(=O)N[C@@H](CCCCN)C(=O)N[C@@H](CCCCN)C(=O)O [WL-C4] (H-WLKKLKKK(Butyryl)LKKLK(Butyryl)KK-OH) | 4 | 4 | 16 | 32 | 2 | 4 | 8 | 8.00 |  |  | 16 | 16 | no significant cytotoxicity | no significant cytotoxicity |  |  | 
